{"source": "ChEMBL document CHEMBL1201862", "about": "“PubChem BioAssay data set” (2004)", "experiment_in_all_cases": "NCI tumour cell line growth inhibition, 48 h", "key": {"[1]": {"system": "786-0"}, "[2]": {"system": "A498"}, "[3]": {"system": "A549"}, "[4]": {"system": "ACHN"}, "[5]": {"system": "CAKI-1"}, "[6]": {"system": "CCRF-CEM"}, "[7]": {"system": "COLO 205"}, "[8]": {"system": "DLD-1"}, "[9]": {"system": "DMS-114"}, "[10]": {"system": "EKVX"}, "[11]": {"system": "HCC 2998"}, "[12]": {"system": "HCT-116"}, "[13]": {"system": "HCT-15"}, "[14]": {"system": "HL-60"}, "[15]": {"system": "HOP-18"}, "[16]": {"system": "HOP-62"}, "[17]": {"system": "HOP-92"}, "[18]": {"system": "HT-29"}, "[19]": {"system": "IGROV-1"}, "[20]": {"system": "K562"}, "[21]": {"system": "KM-20L2"}, "[22]": {"system": "KM12"}, "[23]": {"system": "LXFL 529"}, "[24]": {"system": "M14"}, "[25]": {"system": "M19-MEL"}, "[26]": {"system": "MOLT-4"}, "[27]": {"system": "Malme-3M"}, "[28]": {"system": "NCI-H23"}, "[29]": {"system": "NCI-H460"}, "[30]": {"system": "NCI-H522"}, "[31]": {"system": "OVCAR-3"}, "[32]": {"system": "OVCAR-4"}, "[33]": {"system": "OVCAR-5"}, "[34]": {"system": "OVCAR-8"}, "[35]": {"system": "RXF 393"}, "[36]": {"system": "RXF 631"}, "[37]": {"system": "SF-268"}, "[38]": {"system": "SF-295"}, "[39]": {"system": "SF-539"}, "[40]": {"system": "SK-MEL-28"}, "[41]": {"system": "SK-MEL-2"}, "[42]": {"system": "SK-MEL-5"}, "[43]": {"system": "SN12C"}, "[44]": {"system": "SNB-19"}, "[45]": {"system": "SNB-75"}, "[46]": {"system": "SNB-78"}, "[47]": {"system": "SW-620"}, "[48]": {"system": "TK-10"}, "[49]": {"system": "U-251"}, "[50]": {"system": "UACC-257"}, "[51]": {"system": "UACC-62"}, "[52]": {"system": "UO-31"}, "[53]": {"system": "LOX IMVI"}, "[54]": {"system": "NCI-H226"}, "[55]": {"system": "SK-OV-3"}}, "note": "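Cells were grown in 96-well plates and exposed to each compound for 48 hours at five concentrations; endpoints were interpolated linearly between bracketing concentrations, or set to the highest concentration if not reached. Abbreviation: GI50, concentration required for 50% inhibition of growth.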 Activity calls are given as the source filed them. Rule as the data show it: active = GI50 up to about 1.1 µM and inactive = higher."}
{"smiles": "Cn1c(=O)c2/c(n(C)c1=O)=N\\C=c1\\c(=O)n(C)c(=O)n(C)\\c1=N\\C=2", "values": [{"measurement": "GI50", "setting": "[1]", "result": "> 100 µM (inactive)"}, {"measurement": "GI50", "setting": "[2]", "result": "> 100 µM (inactive)"}, {"measurement": "GI50", "setting": "[3]", "result": "> 100 µM (inactive)"}, {"measurement": "GI50", "setting": "[4]", "result": "> 100 µM (inactive)"}, {"measurement": "GI50", "setting": "[5]", "result": "> 100 µM (inactive)"}, {"measurement": "GI50", "setting": "[6]", "result": "> 100 µM (inactive)"}, {"measurement": "GI50", "setting": "[7]", "result": "> 100 µM (inactive)"}, {"measurement": "GI50", "setting": "[8]", "result": "> 100 µM (inactive)"}, {"measurement": "GI50", "setting": "[9]", "result": "> 100 µM (inactive)"}, {"measurement": "GI50", "setting": "[10]", "result": "> 100 µM (inactive)"}, {"measurement": "GI50", "setting": "[11]", "result": "> 100 µM (inactive)"}, {"measurement": "GI50", "setting": "[12]", "result": "> 100 µM (inactive)"}, {"measurement": "GI50", "setting": "[13]", "result": "> 100", "unit": "µM"}, {"measurement": "GI50", "setting": "[14]", "result": "> 100 µM (inactive)"}, {"measurement": "GI50", "setting": "[15]", "result": "> 100 µM (inactive)"}, {"measurement": "GI50", "setting": "[16]", "result": "> 100 µM (inactive)"}, {"measurement": "GI50", "setting": "[17]", "result": "> 100 µM (inactive)"}, {"measurement": "GI50", "setting": "[18]", "result": "> 100 µM (inactive)"}, {"measurement": "GI50", "setting": "[19]", "result": "> 100 µM (inactive)"}, {"measurement": "GI50", "setting": "[20]", "result": "> 100 µM (inactive)"}, {"measurement": "GI50", "setting": "[21]", "result": "> 100 µM (inactive)"}, {"measurement": "GI50", "setting": "[22]", "result": "> 100 µM (inactive)"}, {"measurement": "GI50", "setting": "[23]", "result": "> 100 µM (inactive)"}, {"measurement": "GI50", "setting": "[24]", "result": "> 100 µM (inactive)"}, {"measurement": "GI50", "setting": "[25]", "result": "> 100 µM (inactive)"}, {"measurement": "GI50", "setting": "[26]", "result": "> 100 µM (inactive)"}, {"measurement": "GI50", "setting": "[27]", "result": "> 100 µM (inactive)"}, {"measurement": "GI50", "setting": "[28]", "result": "> 100 µM (inactive)"}, {"measurement": "GI50", "setting": "[29]", "result": "> 100 µM (inactive)"}, {"measurement": "GI50", "setting": "[30]", "result": "> 100 µM (inactive)"}, {"measurement": "GI50", "setting": "[31]", "result": "> 100 µM (inactive)"}, {"measurement": "GI50", "setting": "[32]", "result": "> 100 µM (inactive)"}, {"measurement": "GI50", "setting": "[33]", "result": "> 100 µM (inactive)"}, {"measurement": "GI50", "setting": "[34]", "result": "> 100 µM (inactive)"}, {"measurement": "GI50", "setting": "[35]", "result": "> 100 µM (inactive)"}, {"measurement": "GI50", "setting": "[36]", "result": "> 100 µM (inactive)"}, {"measurement": "GI50", "setting": "[37]", "result": "> 100 µM (inactive)"}, {"measurement": "GI50", "setting": "[38]", "result": "> 100 µM (inactive)"}, {"measurement": "GI50", "setting": "[39]", "result": "> 100 µM (inactive)"}, {"measurement": "GI50", "setting": "[40]", "result": "> 100 µM (inactive)"}, {"measurement": "GI50", "setting": "[41]", "result": "> 100 µM (inactive)"}, {"measurement": "GI50", "setting": "[42]", "result": "> 100 µM (inactive)"}, {"measurement": "GI50", "setting": "[43]", "result": "> 100 µM (inactive)"}, {"measurement": "GI50", "setting": "[44]", "result": "> 100 µM (inactive)"}, {"measurement": "GI50", "setting": "[45]", "result": "39.4 µM (inactive)"}, {"measurement": "GI50", "setting": "[46]", "result": "76.2 µM (inactive)"}, {"measurement": "GI50", "setting": "[47]", "result": "> 100 µM (inactive)"}, {"measurement": "GI50", "setting": "[48]", "result": "> 100 µM (inactive)"}, {"measurement": "GI50", "setting": "[49]", "result": "> 100 µM (inactive)"}, {"measurement": "GI50", "setting": "[50]", "result": "> 100 µM (inactive)"}, {"measurement": "GI50", "setting": "[51]", "result": "> 100 µM (inactive)"}, {"measurement": "GI50", "setting": "[52]", "result": "> 100 µM (inactive)"}]}
{"smiles": "CCCCN(CCCC)C(=O)C(=O)C(C(=O)c1ccc(OC)cc1)c1ccc(OC)cc1", "note": "(stereo not drawn)", "values": [{"measurement": "GI50", "setting": "[1]", "result": "> 100 µM (inactive)"}, {"measurement": "GI50", "setting": "[3]", "result": "> 100 µM (inactive)"}, {"measurement": "GI50", "setting": "[4]", "result": "> 100 µM (inactive)"}, {"measurement": "GI50", "setting": "[5]", "result": "> 100 µM (inactive)"}, {"measurement": "GI50", "setting": "[6]", "result": "> 100 µM (inactive)"}, {"measurement": "GI50", "setting": "[7]", "result": "> 100 µM (inactive)"}, {"measurement": "GI50", "setting": "[8]", "result": "> 100 µM (inactive)"}, {"measurement": "GI50", "setting": "[9]", "result": "78.7 µM (inactive)"}, {"measurement": "GI50", "setting": "[10]", "result": "> 100 µM (inactive)"}, {"measurement": "GI50", "setting": "[11]", "result": "> 100 µM (inactive)"}, {"measurement": "GI50", "setting": "[12]", "result": "> 100 µM (inactive)"}, {"measurement": "GI50", "setting": "[13]", "result": "> 100", "unit": "µM"}, {"measurement": "GI50", "setting": "[14]", "result": "> 100 µM (inactive)"}, {"measurement": "GI50", "setting": "[15]", "result": "> 100 µM (inactive)"}, {"measurement": "GI50", "setting": "[16]", "result": "> 100 µM (inactive)"}, {"measurement": "GI50", "setting": "[17]", "result": "27.4 µM (inactive)"}, {"measurement": "GI50", "setting": "[18]", "result": "> 100 µM (inactive)"}, {"measurement": "GI50", "setting": "[19]", "result": "> 100 µM (inactive)"}, {"measurement": "GI50", "setting": "[20]", "result": "> 100 µM (inactive)"}, {"measurement": "GI50", "setting": "[21]", "result": "> 100 µM (inactive)"}, {"measurement": "GI50", "setting": "[22]", "result": "> 100 µM (inactive)"}, {"measurement": "GI50", "setting": "[53]", "result": "> 100 µM (inactive)"}, {"measurement": "GI50", "setting": "[23]", "result": "> 100 µM (inactive)"}, {"measurement": "GI50", "setting": "[24]", "result": "92.3 µM (inactive)"}, {"measurement": "GI50", "setting": "[26]", "result": "> 100 µM (inactive)"}, {"measurement": "GI50", "setting": "[27]", "result": "> 100 µM (inactive)"}, {"measurement": "GI50", "setting": "[54]", "result": "> 100 µM (inactive)"}, {"measurement": "GI50", "setting": "[28]", "result": "> 100 µM (inactive)"}, {"measurement": "GI50", "setting": "[29]", "result": "> 100 µM (inactive)"}, {"measurement": "GI50", "setting": "[31]", "result": "> 100 µM (inactive)"}, {"measurement": "GI50", "setting": "[32]", "result": "> 100 µM (inactive)"}, {"measurement": "GI50", "setting": "[33]", "result": "> 100 µM (inactive)"}, {"measurement": "GI50", "setting": "[34]", "result": "> 100 µM (inactive)"}, {"measurement": "GI50", "setting": "[35]", "result": "35.5 µM (inactive)"}, {"measurement": "GI50", "setting": "[36]", "result": "> 100 µM (inactive)"}, {"measurement": "GI50", "setting": "[37]", "result": "> 100 µM (inactive)"}, {"measurement": "GI50", "setting": "[38]", "result": "> 100 µM (inactive)"}, {"measurement": "GI50", "setting": "[39]", "result": "> 100 µM (inactive)"}, {"measurement": "GI50", "setting": "[40]", "result": "> 100 µM (inactive)"}, {"measurement": "GI50", "setting": "[41]", "result": "> 100 µM (inactive)"}, {"measurement": "GI50", "setting": "[42]", "result": "69 µM (inactive)"}, {"measurement": "GI50", "setting": "[55]", "result": "> 100 µM (inactive)"}, {"measurement": "GI50", "setting": "[43]", "result": "> 100 µM (inactive)"}, {"measurement": "GI50", "setting": "[44]", "result": "> 100 µM (inactive)"}, {"measurement": "GI50", "setting": "[46]", "result": "> 100 µM (inactive)"}, {"measurement": "GI50", "setting": "[47]", "result": "> 100 µM (inactive)"}, {"measurement": "GI50", "setting": "[48]", "result": "> 100 µM (inactive)"}, {"measurement": "GI50", "setting": "[49]", "result": "> 100 µM (inactive)"}, {"measurement": "GI50", "setting": "[50]", "result": "> 100 µM (inactive)"}, {"measurement": "GI50", "setting": "[51]", "result": "56.4 µM (inactive)"}, {"measurement": "GI50", "setting": "[52]", "result": "> 100 µM (inactive)"}]}
